Experimental data: patent US9527885B2, “Hepatitis C virus inhibitors” (BRISTOL-MYERS SQUIBB COMPANY, priority 2011, dated 2016)

Key:
[1] = test system: HCV genotype 1a (H77 strain) replicon in HUH-7 cells; assay: HCV replicon luciferase reporter assay, genotype 1a; assay type: cell-based; settings: Hepatitis C virus, Huh-7, 72 h, HCV genotype 1a replicon luciferase, 3 days incubation, class symbols, read-out: LE_1a (EC50, range)
Text: (§1) An HCV replicon whole cell system was established as described by Lohmann V, Korner F, Koch J, Herian U, Theilmann L, Bartenschlager R., Science 285(5424):110-3 (1999) and modified to introduce a luciferase reporter, as first described by Krieger et al (Krieger N, Lohmann V, and Bartenschlager R, J. Virol. 75(10):4614-4624 (2001)). CDNA encoding a humanized form of the Renilla luciferase gene and a linker sequence fused directly to the 3′-end of the luciferase gene were introduced into the replicon construct using an Asc1 restriction site located in core, directly upstream of the neomycin marker gene. The adaptive mutation at position 1179 (serine to isoleucine) was also introduced (Blight K J, Kolykhalov, A A, Rice, C M, Science 290(5498):1972-1974). A stable cell line constitutively expressing this HCV replicon construct was generated by first linearizing plasmid DNAs with ScaI. RNA transcripts were synthesized in vitro using the T7 MegaScript transcription kit (Ambion, Austin, Tex.) according to manufacturer's directions. In vitro transcripts of the cDNA were transfected into the human hepatoma cell line, HUH-7. […] Resulting cell lines were characterized for positive and negative strand RNA production and protein production over time.
A stable HCV replicon luciferase reporter cell line representing the genotype 1a H77 strain (Yanagi M, Purcell R H, Emerson S U, et al. Transcripts from a single full-length cDNA clone of hepatitis C virus are infectious when directly transfected into the liver of a chimpanzee. Proc Natl Acad Sci USA 1997; 94(16):8738-8743) was generated as described previously for the genotype 1b (Con1) replicon luciferase cell line. The replicon construct was modified by introducing mutations were introduced into the genes encoding the NS3 helicase domain (proline replaced by leucine at position 1496) and NS5A (serine to isoleucine at position 2204) to improve replication in cell culture.
(§2) HCV replicon luciferase assays were developed to monitor the inhibitory effects of compounds described in the disclosure on HCV genotypes 1a and 1b viral replication. HUH-7 cells, constitutively expressing the HCV replicon, were grown in Dulbecco's Modified Eagle Media (DMEM) (Gibco-BRL) containing 10% Fetal calf serum (FCS) (Sigma) and 1 mg/mL G418 (Gibco-BRL). Compounds were serially diluted 3 folds in DMSO for a twenty-point titration and subsequently transferred to sterile 384-well tissue-culture treated plates (Corning cat #3571). The plates were then seeded with 50 μL of cells at a density of 3.0×10^3 cells/well in DMEM containing 4% FCS (final DMSO concentration at 0.5%). After 3 days incubation at 37° C., cells were analyzed for Renilla Luciferase activity using the EnduRen as substrate (Promega cat #E6485). The EnduRen substrate was diluted in DMEM and then added to the plates to a final concentration of 7.5 μM. The plates were incubated for 2 hrs at 37° C. and then read immediately for 30 seconds with Viewlux Imager (PerkinElmer) using a luminescence program. To assess cytotoxicity of compounds, CC50 values were generated by multiplexing the EnduRen-containing plates with Cell Titer-Blue (Promega, cat # G8082). Cell-Titer Blue (3 μL) was added to each well and incubated for 8 hrs at 37° C. The fluorescence signal from each well was read, with an excitation wavelength at 525/10 nm and an emission wavelength of 598/10 nm, using the Viewlux Imager.
(§3) The EC50 values for compounds were calculated by using a four-parameter logistic equation: y=A+((B−A)/(1+((C/x)^D))), where A and B denotes minimal and maximal % inhibition, respectively, C is the EC50, D is the hill slope and x represents compound concentration.

[2] = test system: HCV genotype 1b (Con1) replicon in HUH-7 cells; assay: HCV replicon luciferase reporter assay, genotype 1b; assay type: cell-based; settings: Hepatitis C virus, 72 h, HCV genotype 1b replicon luciferase, 3 days incubation, class symbols, read-out: LE_1b (EC50, range)
Text: as §1, with “time. […]” for “time.”
as §2, §3

Row | SMILES | EC50 [1] | EC50 [2]
1 | CC[C@@H]1C[C@H](C)CC/C=C\[C@@H]2C[C@@]2(C(=O)NS(=O)(=O)C2(C)CC2)NC(=O)[C@@H]2C[C@@H](Oc3nccc4cc(OC)c(F)cc34)CN2C(=O)[C@H]1NC(=O)OC(C)(C)C(F)(F)F [Compound 4176, 1,1,1-trifluoro-2-methylpropan-2-yl (2R,6S,7R,9R,13aS,14aR,16aS,Z)-7-ethyl-2-(7-fluoro-6-methoxyisoquinolin-1-yloxy)-9-methyl-14a-(1-methylcyclopropylsulfonylcarbamoyl)-5,16-dioxo-1,2,3,5,6,7,8,9,10,11,13a,14,14a,15,16,16a-hexadecahydrocyclopropa[e]pyrrolo[1,2-a][1,4]diazacyclopentadecin-6-ylcarbamate] | < 5.46 nM | < 5.46 nM
2 | CC[C@@H]1C[C@H](C)CC/C=C\[C@@H]2C[C@@]2(C(=O)NS(=O)(=O)C2(C)CC2)NC(=O)[C@@H]2C[C@@H](Oc3ncc(OC)c4ccc(F)cc34)CN2C(=O)[C@H]1NC(=O)OC(C)(C)C(F)(F)F [Compound 4186, 1,1,1-trifluoro-2-methylpropan-2-yl (2R,6S,7R,9R,13aS,14aR,16aS,Z)-7-ethyl-2-(7-fluoro-4-methoxyisoquinolin-1-yloxy)-9-methyl-14a-(1-methylcyclopropylsulfonylcarbamoyl)-5,16-dioxo-1,2,3,5,6,7,8,9,10,11,13a,14,14a,15,16,16a-hexadecahydrocyclopropa[e]pyrrolo[1,2-a][1,4]diazacyclopentadecin-6-ylcarbamate] | < 5.46 nM | < 5.46 nM
3 | CC[C@@H]1C[C@H](C)CC/C=C\[C@@H]2C[C@@]2(C(=O)NS(=O)(=O)C2CC2)NC(=O)[C@@H]2C[C@@H](Oc3cnc4ccc(OC)cc4n3)CN2C(=O)[C@H]1NC(=O)OC(C)(C)C(F)(F)F [Compound 4194, 1,1,1-trifluoro-2-methylpropan-2-yl (2R,6S,7R,9R,13aS,14aR,16aS,Z)-14a-(cyclopropylsulfonylcarbamoyl)-7-ethyl-2-(7-methoxyquinoxalin-2-yloxy)-9-methyl-5,16-dioxo-1,2,3,5,6,7,8,9,10,11,13a,14,14a,15,16,16a-hexadecahydrocyclopropa[e]pyrrolo[1,2-a][1,4]diazacyclopentadecin-6-ylcarbamate] | < 5.46 nM | < 5.46 nM
4 | COc1ccc2c(O[C@@H]3C[C@H]4C(=O)N[C@]5(C(=O)NS(=O)(=O)C6(CF)CC6)C[C@H]5/C=C\CC[C@@H](C)C[C@@H](C)[C@H](NC(=O)OC(C)(C)C(F)(F)F)C(=O)N4C3)ccnc2c1 [Compound 4198, 1,1,1-trifluoro-2-methylpropan-2-yl (2R,6S,7R,9R,13aS,14aR,16aS,Z)-14a-(1-(fluoromethyl)cyclopropylsulfonylcarbamoyl)-2-(7-methoxyquinolin-4-yloxy)-7,9-dimethyl-5,16-dioxo-1,2,3,5,6,7,8,9,10,11,13a,14,14a,15,16,16a-hexadecahydrocyclopropa[e]pyrrolo[1,2-a][1,4]diazacyclopentadecin-6-ylcarbamate] | 4.82 to 103 nM | < 5.46 nM
5 | COc1ccc2c(O[C@@H]3C[C@H]4C(=O)N[C@]5(C(=O)NS(=O)(=O)C6(CF)CC6)C[C@H]5/C=C\CC[C@@H](C)C[C@@H](C)[C@H](NC(=O)OC(C)(C)C(F)(F)F)C(=O)N4C3)cc(Cl)nc2c1 [Compound 4199, 1,1,1-trifluoro-2-methylpropan-2-yl (2R,6S,7R,9R,13aS,14aR,16aS,Z)-2-(2-chloro-7-methoxyquinolin-4-yloxy)-14a-(1-(fluoromethyl)cyclopropylsulfonylcarbamoyl)-7,9-dimethyl-5,16-dioxo-1,2,3,5,6,7,8,9,10,11,13a,14,14a,15,16,16a-hexadecahydrocyclopropa[e]pyrrolo[1,2-a][1,4]diazacyclopentadecin-6-ylcarbamate] | < 5.46 nM | < 5.46 nM
6 | CCOc1cnc(O[C@@H]2C[C@H]3C(=O)N[C@]4(C(=O)NS(=O)(=O)C5(C)CC5)C[C@H]4/C=C\CC[C@@H](C)C[C@@H](CC)[C@H](NC(=O)OC(C)(C)C(F)(F)F)C(=O)N3C2)c2ccccc12 [Compound 4202, 1,1,1-trifluoro-2-methylpropan-2-yl (2R,6S,7R,9R,13aS,14aR,16aS,Z)-2-(4-ethoxyisoquinolin-1-yloxy)-7-ethyl-9-methyl-14a-(1-methylcyclopropylsulfonylcarbamoyl)-5,16-dioxo-1,2,3,5,6,7,8,9,10,11,13a,14,14a,15,16,16a-hexadecahydrocyclopropa[e]pyrrolo[1,2-a][1,4]diazacyclopentadecin-6-ylcarbamate] | < 5.46 nM | < 5.46 nM
7 | CC[C@@H]1C[C@H](C)CC/C=C\[C@@H]2C[C@@]2(C(=O)NS(=O)(=O)C2(C)CC2)NC(=O)[C@@H]2C[C@@H](Oc3nccc4cc(OC)ccc34)CN2C(=O)[C@H]1NC(=O)OC(C)(C)C [Compound 4203, tert-butyl (2R,6S,7R,9R,13aS,14aR,16aS,Z)-7-ethyl-2-(6-methoxyisoquinolin-1-yloxy)-9-methyl-14a-(1-methylcyclopropylsulfonylcarbamoyl)-5,16-dioxo-1,2,3,5,6,7,8,9,10,11,13a,14,14a,15,16,16a-hexadecahydrocyclopropa[e]pyrrolo[1,2-a][1,4]diazacyclopentadecin-6-ylcarbamate] | < 5.46 nM | < 5.46 nM
8 | COc1ccc(-c2nc(O[C@@H]3C[C@H]4C(=O)N[C@]5(C(=O)NS(=O)(=O)C6CC6)C[C@@H]5/C=C\CC[C@@H](C)C[C@@H](C)[C@H](NC(=O)OC(C)(C)C)C(=O)N4C3)c3ccc(OC)cc3n2)cc1 [Compound 5002, tert-butyl ((2R,6S,7R,9R,13aR,14aR,16aS,Z)-14a-((cyclopropylsulfonyl)carbamoyl)-2-((7-methoxy-2-(4-methoxyphenyl)quinazolin-4-yl)oxy)-7,9-dimethyl-5,16-dioxo-1,2,3,5,6,7,8,9,10,11,13a,14,14a,15,16,16a-hexadecahydrocyclopropa[e]pyrrolo[1,2-a][1,4]diazacyclopentadecin-6-yl)carbamate] | < 5.46 nM | < 5.46 nM
9 | [2H]C([2H])([2H])Oc1cnc(O[C@@H]2C[C@H]3C(=O)N[C@]4(C(=O)NS(=O)(=O)C5(C)CC5)C[C@H]4CCCC[C@H](C)C[C@@H](C)[C@H](NC(=O)OC(C)(C)C(F)(F)F)C(=O)N3C2)c2ccccc12 [Compound 5110, 1,1,1-trifluoro-2-methylpropan-2-yl ((2R,6S,7R,9S,13aR,14aR,16aS)-7,9-dimethyl-14a-(((1-methylcyclopropyl)sulfonyl)carbamoyl)-5,16-dioxo-2-((4-(trideuteromethoxy)isoquinolin-1-yl)oxy)octadecahydrocyclopropa[e]pyrrolo[1,2-a][1,4]diazacyclopentadecin-6-yl)carbamate] | 4.82 to 103 nM | < 5.46 nM
